Values quoted from earlier work in patent EP2151445B1, “Process for the preparation of bidentate Schiff base ruthenium catalysts containing a salicylaldimine-type ligand” (Rimtec Corporation, priority 2008, dated 2010).

Conditions: in water

pKb, about 3.69:
O=C([O-])[O-].[Li+].[Li+] [Li2CO3]
O=C([O-])[O-].[K+].[K+] [K2CO3]
O=C([O-])[O-].[Cu+2] [CuCO3]
O=C([O-])[O-].[Na+].[Na+] [Na2CO3]
